The values below come from PMC7821958, “Synthesis, in vitro enzyme activity and molecular docking studies of new benzylamine-sulfonamide derivatives as selective MAO-B inhibitors” (Journal of Enzyme Inhibition and Medicinal Chemistry, 2020).

The subject of one data set is MAO-B. The arrangement: method as in PMID 27028260. Conditions: read-out: IC50 against MAO-B; cited from earlier work.
Data set [1] relates to NIH/3T3 mouse embryonic fibroblast cell line. Description: Cytotoxicity MTT assay. Conditions: NIH3T3 cells. The class given is cell-based. On the procedure:
(§1) The NIH/3T3 mouse embryonic fibroblast cell line (ATCC®CRL-1658 ™, London, UK) was used for cytotoxicity assays. The incubation period of NIH/3T3 cells was based on the supplier's recommendation. NIH/3T3 cells were seeded at 1 × 10^4 cells into each well of 96-well plates. MTT assay was carried out in accordance with the standards previously described manner[23]^,[24]. The compounds were tested between 1 and 0.000316 mM concentrations.

Another data set can be described thus: Cytotoxicity MTT assay. In kind it is cell-based, mouse. The note with it: mouse, NIH/3T3 mouse embryonic fibroblast cells, read-out: IC50 NIH/3T3 cell line. On the procedure:
as §1

For the next data set, the target named is T1, hMAO-A (Homo sapiens, UniProt P21397).
T1 construct: purchased Sigma-Aldrich (Steinheim, Germany)
T1 sequence (P21397 1-527): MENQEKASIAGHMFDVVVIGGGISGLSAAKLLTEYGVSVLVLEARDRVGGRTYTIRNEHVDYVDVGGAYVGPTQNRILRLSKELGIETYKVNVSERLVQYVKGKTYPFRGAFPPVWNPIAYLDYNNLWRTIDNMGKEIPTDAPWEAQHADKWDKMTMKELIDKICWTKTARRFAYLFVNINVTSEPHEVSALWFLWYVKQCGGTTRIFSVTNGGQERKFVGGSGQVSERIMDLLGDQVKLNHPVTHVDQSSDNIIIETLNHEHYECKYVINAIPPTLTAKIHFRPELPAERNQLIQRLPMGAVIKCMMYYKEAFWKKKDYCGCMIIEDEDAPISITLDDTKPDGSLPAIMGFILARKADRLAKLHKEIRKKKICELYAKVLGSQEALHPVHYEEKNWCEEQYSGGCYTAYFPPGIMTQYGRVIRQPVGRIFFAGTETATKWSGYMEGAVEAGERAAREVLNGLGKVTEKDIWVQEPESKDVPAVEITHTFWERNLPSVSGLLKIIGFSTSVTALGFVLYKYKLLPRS
Kind of data set: MAO-A inhibition assay, fluorometric (Amplex Red / horseradish peroxidase-coupled). The note with it: read-out: MAO-A % Inhibition; for inhibition at 1000 µM: 10^−3 M; for inhibition at 100 µM: 10^−4 M. In kind it is biochemical. On the procedure: A Biotek Precision XS robotic system (USA) was used for all pipetting operations. Measurements were performed with the use of BioTek-Synergy H1 microplate reader (USA) based upon the fluorescence generated (excitation, 535 nm, emission, 587 nm) over a 30 min period, in which the fluorescence increased linearly.
Enzymatic assay was performed according to recent method pronounced by our research group[17]^,[20–22]. Control, blank and all concentrations of obtained compounds were tested in quadruplicate and inhibition percent was calculated with following equation: % Inhibition=(FCt2 − FCt1) − (FIt2 − FIt1)/FCt2 − FCt1 × 100
FCt2: Fluorescence of a control well measured at t2 time, FCt1: Fluorescence of a control well measured at […]: Fluorescence of an inhibitor well measured at t2 time, FIt1: Fluorescence of an inhibitor well measured at t1 time,
The IC50 values were calculated using a dose-response curve achieved by plotting the percentage inhibition versus the log concentration using GraphPad ‘PRISM’ software (version 5.0).
All the obtained benzylamine-sulphonamide derivatives 4a–4u were investigated for their inhibitory activity against MAO isoforms using a previously described in vitro fluorometric method, which is based on the detection of H2O2 in a horseradish peroxidase-coupled reaction using 10-acetyl-3,7-dihydroxyphenoxazine (Amplex Red reagent)[17]^,[20–22].
The assay was carried out in two steps. […].

Data set [2] concerns the target T2, hMAO-B (Homo sapiens, UniProt P27338).
T2 construct: purchased Sigma-Aldrich (Steinheim, Germany)
T2 sequence (P27338 1-520): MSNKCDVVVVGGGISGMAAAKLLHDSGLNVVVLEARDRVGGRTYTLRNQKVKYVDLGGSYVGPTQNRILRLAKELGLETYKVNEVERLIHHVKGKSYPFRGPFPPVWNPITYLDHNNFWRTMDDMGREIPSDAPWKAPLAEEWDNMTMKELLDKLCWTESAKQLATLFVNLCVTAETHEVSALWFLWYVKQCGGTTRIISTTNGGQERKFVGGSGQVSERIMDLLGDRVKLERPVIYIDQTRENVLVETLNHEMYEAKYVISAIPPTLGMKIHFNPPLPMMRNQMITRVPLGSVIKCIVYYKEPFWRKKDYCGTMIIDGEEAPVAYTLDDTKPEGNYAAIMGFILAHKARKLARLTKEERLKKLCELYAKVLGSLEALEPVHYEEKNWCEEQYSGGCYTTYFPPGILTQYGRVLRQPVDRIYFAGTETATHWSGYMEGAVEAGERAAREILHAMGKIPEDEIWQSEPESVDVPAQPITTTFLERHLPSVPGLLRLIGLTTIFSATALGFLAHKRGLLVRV
Description: MAO-B inhibition assay, fluorometric (Amplex Red / horseradish peroxidase-coupled).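 For all read-outs here: fluorescence read at Ex 535 nm and Em 587 nm over 30 min, linear phase, inhibition relative to uninhibited control wells, IC50 from log concentration–response curves.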 The class given is biochemical. The note with it: for inhibition at 1000 µM: 10^−3 M; for inhibition at 100 µM: 10^−4 M; for inhibition at 10 µM: 10^−5 M; for inhibition at 1 µM: 10^−6 M; for inhibition at 0.1 µM: 10^−7 M; for inhibition at 0.01 µM: 10^−8 M; for inhibition at 0.001 µM: 10^−9 M; for IC50: Table 2, mean ± SD, read-out: IC50 against MAO-B.
Description: FCt2: Fluorescence of a control well measured at t2 time, FCt1: Fluorescence of a control well measured at t2 time, FIt2: Fluorescence of an inhibitor well measured at t2 time, FIt1: Fluorescence of an inhibitor well measured at t1 time,

For data set [3], the target named is T2, hMAO-B. Kind of data set: Enzyme kinetic studies (Lineweaver-Burk plots, secondary plot). In kind it is biochemical. The note with it: for type of inhibition: Lineweaver-Burk plot; for Ki: substrate tyramine, secondary plot, read-out: Ki, steady-state inhibition constant. On the procedure:
The same materials were used in the MAO inhibition assay. […] All processes were evaluated in quadruplicate. The results were analysed as Lineweaver–Burk plots by means of Microsoft Office Excel 2013. The […] of the Lineweaver–Burk plots were replotted versus the inhibitor concentration, and the Ki values were determined from the x-axis intercept as −Ki.
Enzyme kinetics studies were performed to determine the mechanism of hMAO-B inhibition by using a procedure similar to that of the MAO inhibition assay. […] In order to estimate the type of inhibition of these compounds, linear Lineweaver-Burk graphs were used. Substrate velocity curves in the absence and presence of compounds 4i and 4t were recorded. […] In each case, the initial velocity measurements were obtained at different substrate (tyramine) concentrations ranging from 20 μM to 0.625 μM.
The type of inhibition can be determined as either reversible or irreversible by using the Lineweaver-Burk plots. The reversible inhibition type can be classified as mixed-type, uncompetitive, competitive, or non-competitive[17]^,[20–22]. […] Competitive inhibition is seen if the lines intersect on the y-axis, and the slopes and x-intercepts are different. On the contrary, non-competitive inhibition has the opposite result: the plotted lines have the same x-intercept but there are diverse slopes and y-intercepts.

Each structure is given as a SMILES string. “Also recorded” adds a separate entry of the source.

With `O=C(CSc1nc2cc(Cl)ccc2s1)N(Cc1cccc([N+](=O)[O-])c1)c1ccc(F)cc1` [BB-4h, 2-((5-chlorobenzothiazol-2-yl)thio)-N-(4-fluorophenyl)-N-(3-nitrobenzyl)acetamide], the IC50 with MAO-B was 2.95 ± 0.09 µM.
Broadly, the inhibition is the change of the read-out against control, counted positive when it falls. One may read the melting point as the temperature, or range, at which the solid turns liquid. A word on the Ki: it is a dissociation constant, usually derived from enzyme kinetics or from competition with a known ligand. The molecule `NS(=O)(=O)c1ccc(N(Cc2ccccc2)C(=O)CSc2nc3cc(Cl)ccc3s2)cc1` [Compound 4i, N-Benzyl-2-((5-chlorobenzothiazol-2-yl)thio)-N-(4-sulfamoylphenyl)acetamide] showed a melting point of 114 to 116 °C. Further, the “cytotoxicity (in words)” value in data set [1] was “non-toxic; also recorded: non-cytotoxic at their effective concentrations”. Also, the IC50 in the data set “Cytotoxicity MTT assay” is more than 1000 µM. Besides, at hMAO-A, the inhibition at 1000 µM was found to be 56.3 ± 0.996% and the inhibition at 100 µM stood at 40.5 ± 0.782%. Further, on hMAO-B [2], the inhibition at 1000 µM is 94.9 ± 1.41%, the inhibition at 100 µM stood at 91.8 ± 1.26%, 10 µM produced 78.6 ± 1.11% inhibition and the inhibition at 1 µM came out at 72.5 ± 1.11%. Further, on hMAO-B [2], testing at 0.1 µM gave an inhibition of 65.2 ± 0.985%, the inhibition at 0.01 µM is 46.5 ± 0.892%, the inhibition at 0.001 µM was determined as 24.5 ± 0.627% and the IC50 was 0.041 ± 0.001 µM. At hMAO-B [3], the type of inhibition entry was “reversible and non-competitive”; the Ki was determined as 0.036 µM.
Molecule `Cc1ccc(CN(C(=O)CSc2ccccn2)c2ccc(S(N)(=O)=O)cc2)cc1` [Compound 4p, N-(4-Methylbenzyl)-2-(pyridin-2-ylthio)-N-(4-sulfamoylphenyl)acetamide] showed a melting point of 121 to 123 °C. For the same molecule, at hMAO-A, the inhibition at 1000 µM was found to be 45.2 ± 0.971% and the inhibition at 100 µM stood at 24.9 ± 0.792%. Moreover, on hMAO-B [2], at 1000 µM the inhibition was 70.5 ± 1.07% and the inhibition at 100 µM was 35.6 ± 0.622%.
The matching figures for `Cc1ccc(CN(C(=O)CSc2nc3ccccc3o2)c2ccc(S(N)(=O)=O)cc2)cc1` [Compound 4r, 2-(Benzoxazol-2-ylthio)-N-(4-methylbenzyl)-N-(4-sulfamoylphenyl)acetamide]: 148 to 150 °C, 42.4 ± 0.821%, 32.7 ± 0.697%, 67.5 ± 0.957% and 33.1 ± 0.798%.
Taken in the same sequence, the figures for `Cc1ccc(CN(C(=O)CSc2nc3ccccc3s2)c2ccc(S(N)(=O)=O)cc2)cc1` [Compound 4s, 2-(Benzothiazol-2-ylthio)-N-(4-methylbenzyl)-N-(4-sulfamoylphenyl)acetamide] were 170 to 172 °C, 38.2 ± 0.734%, 33 ± 0.697%, 72.7 ± 1% and 40.3 ± 0.835%.
The molecule `Cc1ccc(CN(C(=O)CSc2nc3cc(Cl)ccc3s2)c2ccc(S(N)(=O)=O)cc2)cc1` [Compound 4t, 2-((5-Chlorobenzothiazol-2-yl)thio)-N-(4-methylbenzyl)-N-(4-sulfamoylphenyl)acetamide] gave a melting point of 109 to 111 °C. Besides, in data set [1], the “cytotoxicity (in words)” value is “non-toxic; also recorded: non-cytotoxic at their effective concentrations”. The IC50 in the data set “Cytotoxicity MTT assay” is more than 1000 µM. On hMAO-A, the inhibition at 1000 µM came to 52.6 ± 0.987% and the inhibition at 100 µM stood at 38.3 ± 0.503%. On hMAO-B [2], the inhibition at 1000 µM worked out at 92.6 ± 1.13%, the inhibition at 100 µM worked out at 88.6 ± 1.2%, 10 µM produced 80.5 ± 1.16% inhibition and the inhibition at 1 µM turned out to be 74.7 ± 1.01%. On hMAO-B [2], the inhibition at 0.1 µM worked out at 60.8 ± 1.16%, the inhibition at 0.01 µM turned out to be 36.1 ± 0.862%, the inhibition at 0.001 µM came to 21 ± 0.594% and the IC50 came to 0.065 ± 0.002 µM. At hMAO-B [3], the type of inhibition entry was “reversible and non-competitive”; the Ki is 0.055 µM.
